Data on one substance can be found in PMC3493588 (2012).

This assay has as its system d(CCG)8C (KR-2) (DNA, single strand) CCGCCGCCGCCGCCGCCGCCGCCGC
Description: tryptophan fluorescence quenching titration. The note with it: Na+ (0.01 M NaCl); 0.02 M Hepes, pH 7.5-7.7, 0.0001 M EDTA, 20 °C; half salt-reversal at 0.06 M Na+; weaker at higher NaCl.

Consider H-RWRWKL-NH2, for which the binding entry was “yes”.
